One block for each compound: values may come before it. Where no end group is shown, it is not given here.
How the values were obtained:
[1] = tested on: proteinase Inhibitor I and II; assay: Proteinase inhibitor inducing activity supplied through cut stems/petioles of young tomato plants, radial immunodiffusion of leaf juice; format: in vivo, tomato (Lycopersicon esculentum)
Description: A search was initiated for systemic signals inducing proteinase Inhibitor I and II genes in tomato leaf extracts. […] The polypeptide was purified using high-performance liquid chromatography (HPLC, see Materials and Methods, below). Inducing activity of the polypeptide was assayed by cutting the petioles of young plants and introducing eluted fractions from column separations into the cut over a period of 30 min. The plants were subsequently transferred to small vials of water, incubated under constant light for 24 hours as described (C. A. Ryan, Plant Physiol. 54, 328, 1974), and the amount of proteinase Inhibitor I and II in the leaf juice was quantified by radial immunodiffusion in agar gels that contained rabbit antiserum to Inhibitor I or Inhibitor II (C. A. Ryan, Anal. Biochem. 19, 434, 1967; R. Trautman, K. Cowan, G. Wagner, Immunochemistry 8, 901, 1971). Over 30,000 young tomato plants were assayed over a 2.5 year period.
The leaves were incubated in solutions containing the synthetic systemin polypeptide and the proteinase inhibitors were assayed as described above in Example 1. Each data point was obtained from assays of the leaves of 36 tomato plants.

[2] = Loss of inducing activity of purified systemin after acid hydrolysis or proteolytic enzymes; format: physicochemical
[3] = in vivo
[4] = in vivo; cited from earlier work
[5] = supplied to cut stems of young tomato plants

number of tomato plants in which the sample could induce maximal accumulation of proteinase inhibitors ([1]; step 6 sample, approximately 1 μg of protein): 40,000 tomato plants
activity after acid hydrolysis [2]: total loss of activity
activity in the presence of trypsin and other proteolytic enzymes [2]: partial loss of activity
Compound: CSCC[C@H](NC(=O)[C@H](CCCCN)NC(=O)[C@@H]1CCCN1C(=O)[C@@H]1CCCN1C(=O)[C@H](CC(=O)O)NC(=O)[C@H](CCCNC(=N)N)NC(=O)[C@H](CCCCN)NC(=O)[C@H](CO)NC(=O)[C@@H]1CCCN1C(=O)[C@@H]1CCCN1C(=O)[C@H](CCCCN)NC(=O)[C@H](CO)NC(=O)[C@H](CCC(N)=O)NC(=O)[C@@H](NC(=O)[C@H](C)N)C(C)C)C(=O)N[C@@H](CCC(N)=O)C(=O)N[C@H](C(=O)N[C@@H](CC(=O)O)C(=O)O)[C@@H](C)O [systemin, NH3 -AVQSKPPSKRDPPKMQTD-COO-]

activity on a molar basis relative to previously reported PIIF oligogalactunonide inducers ([1]; in vivo): about 10^5 times
amount of polypeptide required to produce half maximal accumulation of Inhibitors I and II [1, 5]: About 40 fmol per plant
Compound: NH3 -AVQSKPPSKRDPPKMQTD-COO- [synthetic systemin polypeptide]
bioactivity for inducing synthesis and accumulation of Inhibitor I and II compared with native systemin [1, 5]: as effective as the native systemin polypeptide

Compound: ^14 C-labeled polypeptide: synthetic systemin with [14C] Ala added to residues 2 through 18 (AVQSKPPSKRDPPKMQTD; also: 14C label, positions not clearly stated; UniProt P27058 179-196, looked up)
time for radioactivity to move throughout the leaf [3]: ≤ 30 min
time to identification of radiolabeled systemin in phloem exudate by HPLC [3]: 1 to 2 h

Compound: α-1, 4-oligogalacturonides
mobility from wound sites [4]: not found to be mobile

Reference: patent US5883076A, “Systemin” (Washington State University Research Foundation, Inc., priority 1994, dated 1999)
